{
  "source": "paper PMC3265452",
  "about": "(PLoS Neglected Tropical Diseases, 2012)",
  "note": "Counter-ions that a name gives are not always drawn.",
  "data": [
    {"biological_target": "AaDOP2 (Aedes aegypti, UniProt H6D5H2)", "sequence (H6D5H2 1-476)": "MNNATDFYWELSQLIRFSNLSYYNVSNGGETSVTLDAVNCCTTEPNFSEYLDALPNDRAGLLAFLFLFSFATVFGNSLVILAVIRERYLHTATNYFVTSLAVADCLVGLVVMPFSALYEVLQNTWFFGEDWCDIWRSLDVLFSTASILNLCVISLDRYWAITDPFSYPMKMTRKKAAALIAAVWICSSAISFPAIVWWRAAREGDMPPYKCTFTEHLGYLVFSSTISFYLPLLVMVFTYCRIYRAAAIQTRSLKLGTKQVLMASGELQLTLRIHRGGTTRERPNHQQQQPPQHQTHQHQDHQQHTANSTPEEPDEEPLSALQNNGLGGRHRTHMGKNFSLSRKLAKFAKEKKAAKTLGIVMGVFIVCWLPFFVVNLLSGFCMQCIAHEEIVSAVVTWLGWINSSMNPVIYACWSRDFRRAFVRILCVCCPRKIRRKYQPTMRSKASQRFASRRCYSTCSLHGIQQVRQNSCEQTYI", "assay": "AaDOP2 antagonist screen of the LOPAC1280 library (HEK-CRELuc-Aadop2 cells, luminescence)", "type": "cell-based", "conditions": "not given", "values": [
      {"compound": "CC(C)COC(=O)OCN1C(=O)CN(CCN2CC(=O)N(COC(=O)OCC(C)C)C(=O)C2)CC1=O", "note": "[Compound 1070, Sobuzoxane]", "Compound effect (percent receptor signaling in presence of test compound, relative lux units relative to the SCH23390 control)": 96},
      {"compound": "C1COC(NC(C2CC2)C2CC2)=N1", "note": "[Compound 1071, Rilmenidine hemifumarate]", "Compound effect (percent receptor signaling in presence of test compound, relative lux units relative to the SCH23390 control)": 114},
      {"compound": "COc1cccc(NC(=O)/C=C/c2ccc(Cl)cc2)c1", "note": "[Compound 1075, SB-366791]", "Compound effect (percent receptor signaling in presence of test compound, relative lux units relative to the SCH23390 control)": 105},
      {"compound": "Nc1ccc(S(=O)(=O)Nc2ccnn2-c2ccccc2)cc1", "note": "[Compound 1078, Sulfaphenazole]", "Compound effect (percent receptor signaling in presence of test compound, relative lux units relative to the SCH23390 control)": 112},
      {"compound": "CN1CCc2cccc(Cl)c2CC1", "note": "[Compound 1082, SKF 86466]", "Compound effect (percent receptor signaling in presence of test compound, relative lux units relative to the SCH23390 control)": 37},
      {"compound": "Cl.NC1CCN(c2cccc(Cl)n2)CC1", "note": "[Compound 1083, SR 57227A]", "Compound effect (percent receptor signaling in presence of test compound, relative lux units relative to the SCH23390 control)": 100},
      {"compound": "Cl.NNC(N)=O", "note": "[Compound 1086, Semicarbazide hydrochloride]", "Compound effect (percent receptor signaling in presence of test compound, relative lux units relative to the SCH23390 control)": 107},
      {"compound": "NCCCCNCCCN", "note": "[Compound 1089, Spermidine trihydrochloride]", "Compound effect (percent receptor signaling in presence of test compound, relative lux units relative to the SCH23390 control)": 104},
      {"compound": "C=CCN1C[C@H](C)N([C@H](c2ccc(C(=O)N(CC)CC)cc2)c2cccc(OC)c2)C[C@H]1C", "note": "[Compound 1090, SNC80]", "Compound effect (percent receptor signaling in presence of test compound, relative lux units relative to the SCH23390 control)": 94},
      {"compound": "Br.Cc1cccc(C2CN(C)CCc3c2cc(O)c(O)c3Cl)c1", "note": "(stereo not drawn) [Compound 1091, SKF 83959 hydrobromide]", "Compound effect (percent receptor signaling in presence of test compound, relative lux units relative to the SCH23390 control)": 50},
      {"compound": "NCCCNCCCCNCCCN", "note": "[Compound 1092, Spermine tetrahydrochloride]", "Compound effect (percent receptor signaling in presence of test compound, relative lux units relative to the SCH23390 control)": 88},
      {"compound": "CC(=O)NNC(=O)N1Cc2ccccc2Oc2ccc(Cl)cc21", "note": "[Compound 1094, SC 19220]", "Compound effect (percent receptor signaling in presence of test compound, relative lux units relative to the SCH23390 control)": 99},
      {"compound": "Br.Oc1ccc(C2CNCc3sccc32)cc1O", "note": "(stereo not drawn) [Compound 1095, SKF 89626]", "Compound effect (percent receptor signaling in presence of test compound, relative lux units relative to the SCH23390 control)": 89},
      {"compound": "CC(=O)S[C@@H]1CC2=CC(=O)CC[C@]2(C)[C@H]2CC[C@@]3(C)[C@@H](CC[C@@]34CCC(=O)O4)[C@H]12", "note": "[Compound 1099, Spironolactone]", "Compound effect (percent receptor signaling in presence of test compound, relative lux units relative to the SCH23390 control)": 84},
      {"compound": "N[C@H](CO)C(=O)O", "note": "[Compound 1101, D-Serine]", "Compound effect (percent receptor signaling in presence of test compound, relative lux units relative to the SCH23390 control)": 100},
      {"compound": "C[n+]1cc2c3c(ccc2c2ccc4cc5c(cc4c21)OCO5)OCO3", "note": "[Compound 1103, Sanguinarine chloride]", "Compound effect (percent receptor signaling in presence of test compound, relative lux units relative to the SCH23390 control)": 75},
      {"compound": "CCCCCCCCCCCCC/C=C/[C@@H](O)[C@@H](N)CO", "note": "[Compound 1105, Sphingosine]", "Compound effect (percent receptor signaling in presence of test compound, relative lux units relative to the SCH23390 control)": 106},
      {"compound": "CC1CCN(CC[C@H]2CCCN2S(=O)(=O)c2cccc(O)c2)CC1.Cl", "note": "[Compound 1106, SB 269970 hydrochloride]", "Compound effect (percent receptor signaling in presence of test compound, relative lux units relative to the SCH23390 control)": 98},
      {"compound": "O=C(CCCN1CCC2(CC1)C(=O)NCN2c1ccccc1)c1ccc(F)cc1", "note": "[Compound 1107, Spiperone hydrochloride]", "Compound effect (percent receptor signaling in presence of test compound, relative lux units relative to the SCH23390 control)": 29},
      {"compound": "O=C(O)c1ccccc1Nc1cccc(OCc2ccc3ccccc3n2)c1", "note": "[Compound 1108, SR 2640]", "Compound effect (percent receptor signaling in presence of test compound, relative lux units relative to the SCH23390 control)": 91},
      {"compound": "CCN1CCC[C@H]1CNC(=O)c1cc(S(N)(=O)=O)ccc1OC", "note": "[Compound 1109, (-)-Sulpiride]", "Compound effect (percent receptor signaling in presence of test compound, relative lux units relative to the SCH23390 control)": 87},
      {"compound": "COc1ccc(CCCOC(Cn2ccnc2)c2ccc(OC)cc2)cc1", "note": "(stereo not drawn) [Compound 1110, SKF 96365]", "Compound effect (percent receptor signaling in presence of test compound, relative lux units relative to the SCH23390 control)": 68},
      {"compound": "CC#CCOC(=O)c1c(C)nc2sc3c(c2c1N)CCC(O)C3", "note": "(stereo not drawn) [Compound 1112, SB 205384]", "Compound effect (percent receptor signaling in presence of test compound, relative lux units relative to the SCH23390 control)": 81},
      {"compound": "CCCCCCCCCCCCCCCCCCNC(=O)OCC(COP(=O)([O-])OCC[n+]1ccsc1)OC", "note": "(stereo not drawn) [Compound 1114, CV-3988]", "Compound effect (percent receptor signaling in presence of test compound, relative lux units relative to the SCH23390 control)": 101},
      {"compound": "CC1=C(CC(=O)O)c2cc(F)ccc2/C1=C\\c1ccc([S+](C)[O-])cc1", "note": "(stereo not drawn) [Compound 1115, Sulindac]", "Compound effect (percent receptor signaling in presence of test compound, relative lux units relative to the SCH23390 control)": 107},
      {"compound": "C[N+](C)(C)CCOC(=O)CCC(=O)OCC[N+](C)(C)C", "note": "[Compound 1116, Succinylcholine chloride]", "Compound effect (percent receptor signaling in presence of test compound, relative lux units relative to the SCH23390 control)": 94},
      {"compound": "CC(C)(C)NCC(O)c1ccc(O)c(CO)c1", "note": "(stereo not drawn) [Compound 1117, Salbutamol]", "Compound effect (percent receptor signaling in presence of test compound, relative lux units relative to the SCH23390 control)": 107},
      {"compound": "OCc1cc(C(O)CNCCCCCCOCCCCc2ccccc2)ccc1O", "note": "(stereo not drawn) [Compound 1118, Salmeterol]", "Compound effect (percent receptor signaling in presence of test compound, relative lux units relative to the SCH23390 control)": 104},
      {"compound": "C[N+]1(C)[C@@H]2C[C@@H](OC(=O)[C@H](CO)c3ccccc3)C[C@H]1[C@@H]1O[C@@H]12", "note": "[Compound 1120, (-)-Scopolamine methyl bromide]", "Compound effect (percent receptor signaling in presence of test compound, relative lux units relative to the SCH23390 control)": 114},
      {"compound": "CN(C)c1ccc(/C=C2\\C(=O)Nc3ccccc32)cc1", "note": "[Compound 1121, SU 4312]", "Compound effect (percent receptor signaling in presence of test compound, relative lux units relative to the SCH23390 control)": 51}
    ]},
    {"biological_target": "AaDOP2 (Aedes aegypti, UniProt H6D5H2)", "assay": "AaDOP2 antagonist screen of the LOPAC1280 library (HEK-CRELuc-Aadop2 cells, luminescence)", "type": "cell-based", "conditions": "10 µM compound, 300 nM dopamine, 2 hr; hit = compound effect <20", "units": {"Compound effect (percent receptor signaling in presence of test compound, relative lux units relative to the SCH23390 control)": "%"}, "values": [
      {"compound": "COc1ccc(CCNC[C@H](O)c2ccc(O)cc2)cc1OC", "note": "[Compound 1072, R(-)-Denopamine]", "Compound effect (percent receptor signaling in presence of test compound, relative lux units relative to the SCH23390 control)": 107},
      {"compound": "CNc1cc(NS(=O)(=O)c2ccc(N)cc2)nc(NC)n1.Cl.Cl", "note": "[Compound 1073, Ro 04-6790 dihydrochloride]", "Compound effect (percent receptor signaling in presence of test compound, relative lux units relative to the SCH23390 control)": 135},
      {"compound": "CC1=C(CC(=O)O)c2cc(F)ccc2/C1=C\\c1ccc(S(C)(=O)=O)cc1", "note": "[Compound 1080, Sulindac sulfone]", "Compound effect (percent receptor signaling in presence of test compound, relative lux units relative to the SCH23390 control)": 122},
      {"compound": "Br.CN1CCc2cc(O)c(O)cc2C(c2ccccc2)C1", "note": "(stereo not drawn) [Compound 1093, SKF 75670 hydrobromide]", "Compound effect (percent receptor signaling in presence of test compound, relative lux units relative to the SCH23390 control)": 39},
      {"compound": "CCCCN1CCC(COC(=O)c2cc(Cl)c(N)c3c2OCCO3)CC1.Cl", "note": "[Compound 1097, SB 204070 hydrochloride]", "Compound effect (percent receptor signaling in presence of test compound, relative lux units relative to the SCH23390 control)": 122},
      {"compound": "CCCCCCCC/C=C\\CCCCCCCC(=O)NCCc1ccc(O)c(O)c1", "note": "[Compound 1098, N-Oleoyldopamine]", "Compound effect (percent receptor signaling in presence of test compound, relative lux units relative to the SCH23390 control)": 122},
      {"compound": "Br.CN=c1nc(-c2ccccc2)n(-c2ccccc2)s1", "note": "[Compound 1100, SCH-202676 hydrobromide]", "Compound effect (percent receptor signaling in presence of test compound, relative lux units relative to the SCH23390 control)": 102},
      {"compound": "CC(C)(C)NCC(O)c1ccc(O)c(CO)c1.CC(C)(C)NCC(O)c1ccc(O)c(CO)c1.O=S(=O)(O)O", "note": "(stereo not drawn) [Compound 1102, Albuterol hemisulfate]", "Compound effect (percent receptor signaling in presence of test compound, relative lux units relative to the SCH23390 control)": 106},
      {"compound": "O=C(O)CCC(=O)N1CCC[C@H]1C(=O)O", "note": "[Compound 1104, N-Succinyl-L-proline]", "Compound effect (percent receptor signaling in presence of test compound, relative lux units relative to the SCH23390 control)": 111}
    ]}
  ]
}
